Laboratory results reported in US8461186B2, “Use of N-piperidine derivatives for the treatment of neurodegenerative pathologies” (Medestea Research & Production S.p.A., priority 2004, dated 2013).
Where two headings read alike, the source gives them in different places.

Assays:
[1] = tested on: lipid peroxidation in the heart tissue; assay: Malondialdehyde (MDA) in the heart tissue in myocardial ischaemia and reperfusion; type: in vivo, rat; conditions: I/R rats, 10 mg/kg bolus then 2 mg/kg/h; p<0.01 (FIG. 2)
Procedure: (§1) […]. Enzymol. 52, 302-310, 1978.
(§2) The following test groups were considered: a) LAD occlusion (25 minutes) and reperfusion (2 hours) plus administration of the vehicle (saline solution, 3 ml/kg-v-bolus plus 1.8 ml/kg/h) starting 5 minutes after reperfusion and maintained during the reperfusion period; b) LAD occlusion and reperfusion plus administration of MP1002 or MP1001 (10 mg/kg injection in bolus) 5 minutes prior to reperfusion, followed by infusion of 2 mg/kg/h during the reperfusion period; c) sham operation (no LAD occlusion) and infusion of the vehicle; d) sham operation and infusion of MP1002 or MP1001 as described above.
The malondialdehyde (MDA) in the heart tissue as final peroxidation product of the cell membrane lipids was also determined as described above.

[2] = tested on: rats receiving Paraquat into Substantia Nigra; type: in vivo, rat; conditions: for deaths of rats: 120 mg/kg intraperitoneally 5 minutes prior to, simultaneously with, or 5 minutes after 50 μg Paraquat; for signs of alterations during continuous monitoring / survival for a further 24 hours: Paraquat (50 μg) microinfused simultaneously with 1 μg compound; for capacity to cross the blood-brain barrier (BBB): concluded from protection after intraperitoneal administration; for protection against the behavioural and neuropathological effects induced by Paraquat: intracerebral and peripheral administration
Text: The Paraquat/rat/PS experimental model was therefore selected as the most indicative for checking the efficacy of chemical compounds according to the present invention; of these, two anti-oxidants designated MP1002 and MP1001 were used in the tests:
Male Sprague Dawley rats (210-220 g weight) were kept on a standard laboratory diet supplemented with “Nossan Pellets” (both the animals and the pellets are available from Nossan Company, Milan, Italy) and were housed for three weeks (relative humidity 50%±10%, temperature 22° C.±1 and in a light/darkness cycle of 12 hours/12 hours, with first light at 7.30 a.m.) prior to the tests; food and water were available ad libitum.
Prior to treatment, the rats were anaesthetized by intraperitoneal injection of 380 mg/kg weight of chloral hydrate; a stainless steel guide cannula (size 25) was implanted unilaterally in the Substantia Nigra with stereotaxic guiding and was secured to the cranium with dental acrylic material.
The animals (20 per test group) were allowed a recovery period of seven days prior to treatment; during this period no change in motor activity or posture was observed. Microinfusions were performed by means of a 10 μl Hamilton syringe connected to an injection cannula by means of a Teflon tube. The compounds or the vehicle (0.8% NaCl) were injected at a total volume of 1 μl/minute.
Microinfusion of 50 μg of Paraquat into the Substantia Nigra (n=20 rats) led to an increase in motor activity with the animals performing jumps and moving in circles in a contralateral direction relative to the injection position, about 24 minutes later; all of the animals were dead 24±2.5 hours after infusion. A further twenty animals were infused with Paraquat and twenty with Paraquat plus vehicle; about ten of the animals for each group survived 20 hours after treatment and were used to determine the development of lipid peroxidation in the Substantia Nigra.

[3] = tested on: lipid peroxidation in the Substantia Nigra; type: in vivo; conditions: for Lipid Peroxidation: Substantia Nigra, 24 hours; for lipid peroxidation in the Substantia Nigra: treatment before, with, or after infusion with Paraquat, p<0.01
Procedure: Microinfusion of 50 μg of Paraquat into the Substantia Nigra (n=20 rats) led to an increase in motor activity with the animals performing jumps and moving in circles in a contralateral direction relative to the injection position, about 24 minutes later; all of the animals were dead 24±2.5 hours after infusion. […]
as §1

[4] = tested on: mean arterial blood pressure (MAP) and heart rate (HR) in the rat; assay: Mean arterial blood pressure (MAP) and heart rate (HR) in myocardial ischaemia and reperfusion; type: in vivo; conditions: for HR: in beats/min (unit assumed); for MAP: in mmHg (unit assumed); for mean MAP and HR values versus the I/R group treated with the vehicle alone: rats subjected to I/R; for haemodynamic effects of infusion: sham operations (no LAD occlusion)
Procedure: The rats (twenty per group) were anaesthetized by intraperitoneal injection of chloral hydrate (380 mg/kg) and were then tracheotomized, intubated and ventilated with ambient air by a suitable ventilator; body temperature was kept at 38° C.±1 and the right carotid artery was cannulated and connected to a pressure transducer to monitor the mean arterial blood pressure (MAP).
The coronary artery was occluded by tightening the occluder, a procedure which is correlated with the electrocardiographic and haemodynamic changes (drop in MAP) which are typical of myocardial ischaemia. After 25 minutes of myocardial ischaemia, the occluder was reopened, permitting reperfusion for 2 hours. The heart rate (HR) and MAP were monitored continuously.
as §2
The base haemodynamic results were similar in the various groups considered.

[5] = 50 μg paraquat by microinfusion, 5 minutes later 100 mg/kg b.w. intraperitoneal
[6] = pretreated intraperitoneally 120 mg/kg b.w., after 5 minutes paraquat (50 μg) by microinfusion
[7] = simultaneous microinfusion into Substantia Nigra of paraquat (50 μg) with 1 μg compound
[8] = simultaneously 50 μg paraquat by microinfusion and 120 mg/kg b.w. intraperitoneal
[9] = pretreated intraperitoneally 120 mg/kg b.w., after 5 minutes paraquat (50 μg)
[10] = simultaneous microinfusion of paraquat (50 μg) with 1 μg compound
[11] = Sham operation, Occlusion 15 min
[12] = Sham operation, Occlusion 25 min
[13] = Sham operation, Reperfusion 15 min
[14] = Sham operation, Reperfusion 25 min

## CC1(C)CC(OC(=O)CCCCCCCCC(=O)OC2CC(C)(C)N(O)C(C)(C)C2)CC(C)(C)N1O [MP1002, bis(1-oxyl-2,2,6,6-tetramethyl-4-piperidinyl)decandioate]
[1]
  development of lipid peroxidation in heart tissue (MDA): reduced the development of peroxidation to levels similar to those of the animals that were subjected to sham operations
[2]; [5]
  Duration (seizures): No seizures and epileptic discharges
  Latency (seizures): No seizures and epileptic discharges
  Mortality: 0%
[2]
  deaths of rats: none of the rats died
  signs of alterations during continuous monitoring: no signs of alterations were observed
  survival for a further 24 hours: all of the animals survived
  capacity to cross the blood-brain barrier (BBB): cross the blood-brain barrier
  protection against the behavioural and neuropathological effects induced by Paraquat: protected completely
[2]; [6]
  Duration (seizures): No seizures and epileptic discharges
  Latency (seizures): No seizures and epileptic discharges
  Mortality: 0%
[2]; [7]
  Duration (seizures): No seizures and epileptic discharges
  Latency (seizures): No seizures and epileptic discharges
  Mortality: 0%
[2]; [8]
  Duration (seizures): No seizures and epileptic discharges
  Latency (seizures): No seizures and epileptic discharges
  Mortality: 0%
[3]; [5]
  Lipid Peroxidation: 4.1 ± 0.39 nmol MDA × h^−1 × mg prot^−1
[3]; [9]
  Lipid Peroxidation: 5.2 ± 0.75 nmol MDA × h^−1 × mg prot^−1
[3]; [10]
  Lipid Peroxidation: 4.3 ± 0.63 nmol MDA × h^−1 × mg prot^−1
[3]; [8]
  Lipid Peroxidation: 4.9 ± 0.86 nmol MDA × h^−1 × mg prot^−1
[3]
  lipid peroxidation in the Substantia Nigra: markedly and significantly (p<0.01) reduced lipid peroxidation
[4]; I/R, Baseline
  HR: 438 ± 30
  MAP: 127 ± 14
[4]; I/R, Occlusion 15 min
  HR: 437 ± 32
  MAP: 121 ± 14
[4]; I/R, Occlusion 25 min
  HR: 431 ± 24
  MAP: 114 ± 10
[4]; I/R, Reperfusion 15 min
  HR: 427 ± 29
  MAP: 102 ± 11
[4]; I/R, Reperfusion 25 min
  HR: 429 ± 25
  MAP: 97 ± 9
[4]; Sham operation, Baseline
  HR: 421 ± 26
  MAP: 125 ± 15
[4]; [11]
  HR: 420 ± 33
  MAP: 123 ± 16
[4]; [12]
  HR: 422 ± 25
  MAP: 120 ± 11
[4]; [13]
  HR: 428 ± 26
  MAP: 110 ± 12
[4]; [14]
  HR: 426 ± 32
  MAP: 105 ± 9
[4]
  mean MAP and HR values versus the I/R group treated with the vehicle alone: not significantly different
  haemodynamic effects of infusion: no substantial haemodynamic effects

## CC1(C)CC(OC(=O)CCCCCCCCC(=O)OC2CC(C)(C)N(O)C(C)(C)C2)CC(C)(C)N1O [MP1001, BIS(1-HYDROXYL-2,2,6,6-TETRAMETHYL-4-PIPERIDINYL)DECANDIOATE]
[1]
  development of lipid peroxidation in heart tissue (MDA): reduced the development of peroxidation to levels similar to those of the animals that were subjected to sham operations
[2]; [5]
  Duration (seizures): No seizures and epileptic discharges
  Latency (seizures): No seizures and epileptic discharges
  Mortality: 0%
[2]
  deaths of rats: none of the rats died
  signs of alterations during continuous monitoring: no signs of alterations were observed
  survival for a further 24 hours: all of the animals survived
  capacity to cross the blood-brain barrier (BBB): cross the blood-brain barrier
  protection against the behavioural and neuropathological effects induced by Paraquat: protected completely
[2]; [6]
  Duration (seizures): No seizures and epileptic discharges
  Latency (seizures): No seizures and epileptic discharges
  Mortality: 0%
[2]; [7]
  Duration (seizures): No seizures and epileptic discharges
  Latency (seizures): No seizures and epileptic discharges
  Mortality: 0%
[2]; [8]
  Duration (seizures): No seizures and epileptic discharges
  Latency (seizures): No seizures and epileptic discharges
  Mortality: 0%
[3]; [5]
  Lipid Peroxidation: 4.8 ± 0.57 nmol MDA × h^−1 × mg prot^−1
[3]; [9]
  Lipid Peroxidation: 4.7 ± 0.49 nmol MDA × h^−1 × mg prot^−1
[3]; [10]
  Lipid Peroxidation: 5.4 ± 0.84 nmol MDA × h^−1 × mg prot^−1
[3]; [8]
  Lipid Peroxidation: 5.1 ± 0.94 nmol MDA × h^−1 × mg prot^−1
[3]
  lipid peroxidation in the Substantia Nigra: markedly and significantly (p<0.01) reduced lipid peroxidation
[4]; I/R, Baseline
  HR: 435 ± 25
  MAP: 125 ± 9
[4]; I/R, Occlusion 15 min
  HR: 438 ± 31
  MAP: 118 ± 12
[4]; I/R, Occlusion 25 min
  HR: 430 ± 28
  MAP: 111 ± 13
[4]; I/R, Reperfusion 15 min
  HR: 425 ± 28
  MAP: 100 ± 10
[4]; I/R, Reperfusion 25 min
  HR: 427 ± 26
  MAP: 95 ± 8
[4]; Sham operation, Baseline
  HR: 422 ± 33
  MAP: 127 ± 16
[4]; [11]
  HR: 422 ± 26
  MAP: 125 ± 13
[4]; [12]
  HR: 424 ± 48
  MAP: 121 ± 11
[4]; [13]
  HR: 427 ± 27
  MAP: 112 ± 8
[4]; [14]
  HR: 427 ± 23
  MAP: 107 ± 16
[4]
  mean MAP and HR values versus the I/R group treated with the vehicle alone: not significantly different
  haemodynamic effects of infusion: no substantial haemodynamic effects
